Drawing on a melting point compilation (Tetko et al.; mined from patent text by program, amines drawn as free bases though some values may be those of a salt), this text covers melting point for 88 compounds.

With `COc1ccc(N2CCN(c3c(C)c(C)c4c(c3C)C(O)(c3ccsc3)C(C)(C)O4)CC2)cc1` (stereo not drawn), the melting point (as a rule, the temperature of the solid-liquid transition) fell in the range of 131 to 133 °C.
Then `CCCCCCCCCCCC(=O)OC[C@H]1OCC(=NO)[C@@H](O)[C@@H]1O`, with 90 to 101 °C; and `CCCCc1nn(-c2ccccc2C(F)(F)F)c(=O)n1Cc1ccc(-c2cc(CCC)ccc2S(=O)(=O)NC(=O)c2ccccc2Cl)cc1F`, with 79 to 82 °C; and `Cc1oncc1-c1ccc(OC2SCC(O)C(O)C2O)cn1` (stereo not drawn), with 184 °C.
Under `N#CC1Cc2ccc([N+](=O)[O-])cc2C1` (stereo not drawn) stands 80 to 82 °C; under `N#Cc1nc(Cl)c(-c2cccc(Cl)c2)nc1C#N`, 87 to 88 °C.
Then `COc1ccc(NC(=O)Oc2ccc3c(c2)N(Cc2ccccc2)CCC3)cc1`, with 170 °C.
As to `CCc1nnc(-c2ccc(OC)cc2)n1-c1ccc(OC)cc1`, the melting point stood at 122 °C.
Then `O=C(O)CCc1nc(-c2ccccc2)cs1`, with 72 to 73 °C.
`CC(=O)OC(=CC(=O)O)CC(=O)Nc1ccccc1` yielded a melting point of 125 to 126 °C.
The compound `Cn1ccnc1N1CCC(c2ccc(N)cc2)CC1` returned a melting point of 187 to 188 °C.
Then `O=C1CN(C(=O)N2CCOCC2)c2ccccc2N1`, with 180 °C; and `N[C@H]1CC[C@H](CC(=O)N2CCN(c3ccccc3)CC2)CC1`, with 90 to 93 °C.
Turning to `FC(F)(F)Oc1ccc2nc(Cl)sc2c1`, the melting point is less than 50 °C.
Take `CC(=O)Oc1ccc(-c2nn(C3CCCC3)c3c(F)cccc23)cc1`: the melting point lay in the range of 90 to 91 °C.
Under `CC12CCCc3cc(NS(=O)(=O)c4ccc(C(=O)O)cc4)cc(c31)CCC2` stands 215 to 217 °C.
Under `CCOC(=O)c1ccccc1CN1C(=O)C(CCO)Oc2ccccc21` (stereo not drawn) stands 114 to 116 °C.
The compound `O=c1[nH]nc2c3c(cccc13)Oc1ccc(COP(=O)(OCc3ccccc3)OCc3ccccc3)cc1-2` yielded a melting point of 223 to 225 °C.
Compound `O=C(O)c1ccc2c(c1)C(=O)c1cc(C(=O)O)ccc1S2(=O)=O` registered a melting point of 372 to 375 °C.
Under `CCOC(Nc1ccccc1)(OCC)C1(Cl)C=CN=C(C(=O)c2ccc(Cl)cc2)C1` (stereo not drawn) stands 123 to 124 °C; under `CC(C)NC(C)C(=O)Nc1cccc2c1C(=O)c1c(NC(=O)C(C)NC(C)C)cccc1C2=O` (stereo not drawn), 105 to 106 °C.
Under `O=C1NC(=O)C(Cc2ccc3cc(OCc4ccccc4F)ccc3c2)S1` (stereo not drawn) stands 150 to 152 °C; under `C/C(=C\c1ccc(C(=O)O)cc1)c1ccc2c(c1)C(C)(C)C(O)CC2(C)C` (stereo not drawn), 250 to 252 °C.
`CCOC(=O)C(C)Oc1cc(N=C(C(N)=O)N2CCCC2)c(Cl)cc1Cl` (stereo not drawn) gave a melting point of 160 to 163 °C.
`CCc1nn2ccccc2c1-c1n[nH]c(=O)cc1C` registered a melting point of 216 to 217 °C.
`COC(=O)c1cc(I)ccn1` yielded a melting point of 73 to 74 °C.
Then `O=CC1=C(Br)CC(F)(Br)C=C1` (stereo not drawn), with 57 to 58 °C; and `CC(C)c1nc(CNC(=O)C(F)(F)F)n(C)c1Sc1cc(Cl)cc(Cl)c1`, with 157 to 158 °C.
Under `CC(=O)Nc1ccc(NC(=O)N(C[C@H]2CC[C@H](CN(C(=O)Nc3ccc(NC(C)=O)cc3)C3CCCCC3)CC2)C2CCCCC2)cc1` stands 228 to 231 °C.
In the case of `O=c1ccn(CCO)c(C(O)c2ccc3c(c2)OCO3)c1OCc1ccccc1` (stereo not drawn), the melting point fell in the range of 195 to 196 °C.
Then `O=C(NCc1ccc(Cl)cc1)c1cnc2c(F)cc(C#CCO)cc2c1O`, with 277 to 279 °C; and `CCOC(=O)C1=C(C)NC(C)=C(C(=O)OCC)C1c1cccc(F)c1`, with 149 to 150 °C.
Consider `O=C(Nc1ccc(F)cc1)NC1CCN(C(=O)c2cccnc2)CC1`, for which the melting point lay within 118 to 122 °C.
Then `Clc1ccc(-c2cc(C3CCN(Cc4ccc5ccccc5c4)CC3)n[nH]2)cc1`, with 180 to 181 °C; and `COc1cc(OC)nc(-c2ccc(-c3ccccc3S(=O)(=O)Nc3onc(C)c3C)cc2)n1`, with 83 to 93 °C; and `CCOCCOc1ccc(C(=O)Nc2ccc3cc(CN4CCCC4)cnc3c2C)c(F)c1`, with 132 °C.
Consider `Cc1ccccc1-c1ccc(C(=O)N2Cc3ccc(C(=O)NCc4cccc(C(F)(F)F)c4)n3Cc3ccccc32)cc1C`, for which the melting point fell in the range of 171 to 173 °C.
Regarding `Cc1ccc(C=CC(=O)C2CC2)cc1`, the melting point lay within 75 to 76 °C.
Under `Clc1ccc(Cl)c(COC2COC(c3ccccc3)OC2)c1Cl` (stereo not drawn) stands 93.5 to 94 °C.
In turn, `Cc1ccc(F)c(-n2cnc(-c3cnc4[nH]cc(C(=O)N[C@@H](C)C(C)(C)C)c4n3)c2)c1` displayed a melting point of 331 to 332 °C.
On to `CC(NC(=O)OCc1ccccc1)NC(=O)C1C(C)(C)CCC1(C)C` (stereo not drawn), for which the melting point stood at 146 °C.
As for `O=C(O)c1cn(C2CC2)c2c(C(F)(F)F)c(N3CCC(c4ccccn4)C3)c(F)cc2c1=O` (stereo not drawn), the melting point lay in the range of 210 to 212 °C.
Then `CC(=O)Nc1cc2c(cc1[N+](=O)[O-])N(NC(C)=O)CC2`, with 212 to 213 °C; and `Cc1ccccc1C(=O)NC(NC(=S)Nc1cccnc1)C(C)(C)C` (stereo not drawn), with 186 to 187 °C; and `CCC12CCC3C4CCC(=O)C=C4CCC3C1CCC2OC1CCCCO1` (stereo not drawn), with 148 to 152 °C.
Under `CC1Cc2c(cc(O)cc2C(=O)O)O1` (stereo not drawn) stands 225 to 227 °C; under `N#CC(c1ccccc1)(c1ccccc1)C1CCN(C(=O)Oc2ccccc2)C1` (stereo not drawn), 154 to 155 °C.
Under `CCn1c2ccc3ccccc3c2c2cccc(C)c21` stands 79 to 83 °C; under `O=C(Nc1ccc(C(F)(F)F)cc1)C1=NN(c2ccccc2)CC1c1ccc(F)cc1` (stereo not drawn), 184 °C.
`CCCCOc1c(C(C)O)n(C)c(=O)c2cc(Cl)c(Cl)cc12` (stereo not drawn) yielded a melting point of 123 to 124 °C.
Then `N#Cc1ccc(C2CC(=O)N(Cc3ccccc3)Cc3cncn32)cc1` (stereo not drawn), with 65 °C; and `CC(=O)Nc1csc(Br)n1`, with 165 °C; and `CC(C)(Br)c1ccc2occ(C#N)c(=O)c2c1`, with 115 to 117 °C.
Then `CCOc1ccccc1-c1ncc(C#N)c(=O)[nH]1`, with 186 to 187 °C; and `COC(=O)C1(C(=O)Nc2ccc(Br)cc2C)CC1`, with 106 to 108 °C; and `Cc1ccc(P2(=O)c3ccccc3CN2c2ccccc2)cc1` (stereo not drawn), with 180 to 181 °C.
Regarding `CNC1=Nc2ccccc2C(O)(c2ccccc2)C1(C)C` (stereo not drawn), the melting point was 192 to 194 °C.
Then `COc1ccc(C=C2NC(C(=O)Cc3cc(OC)c(OC)c(OC)c3)=Cc3ccccc32)cc1OC`, with 164 to 170 °C.
Under `COC(=O)CC1CCN(C(=O)N2CCC(c3ccc(C#N)cc3)CC2)CC1` stands 115 to 118 °C; under `Nc1cc(N2CCNCC2)c(F)cc1[N+](=O)[O-]`, 120 to 121 °C; under `COc1cc2c(cc1OC)CN(CCCCc1ccc(NC(=O)c3cnc4cc(C)c(C)cc4n3)cc1)CC2`, 100 to 105 °C.
Compound `CCSC(=NC(C)=O)Nc1c(Cl)cccc1Cl` had a melting point of 97 to 100 °C.
Take `COC(=O)c1cccc(Cn2c(=O)c(=O)[nH]c3cc([N+](=O)[O-])ccc32)c1`: the melting point is 265 to 267 °C.
Under `Cc1c(-c2ccc3oc(SCc4ccccn4)nc3c2)nc2ccccn12` stands 116 to 118 °C.
Then `N#Cc1ccc(CC(NC(=O)C(Cc2ccccc2)S(=O)(=O)Nc2ccc3ccccc3c2)C(=O)N2CCCC2)cc1` (stereo not drawn), with 206 °C; and `CC(C)(C)NC(=O)Nc1nc2nc(NC3CCOCC3)ncc2cc1Oc1ccc(F)cc1F`, with 195 to 201 °C; and `N#Cc1ccc(OCCCCOc2cccc(-c3cc4cc(C#N)ccc4o3)c2)cc1`, with 130 to 132 °C.
Under `O=C1Cc2cc(F)ccc2N1CCCl` stands 127 °C; under `COC(=O)N1CCN(C(=O)c2cc(S(=O)(=O)NN(C)C)ccc2N)CC1`, 169 to 171 °C.
`COC(=O)c1ccc2c(c1)c(Cc1ccc(C(=O)O)cc1OC)cn2C` registered a melting point of 228 to 230 °C.
Compound `Cc1ccc(-c2c(-c3ccc(S(C)(=O)=O)cc3)cnn(-c3ccc(F)c(F)c3)c2=O)cc1F` showed a melting point of 204 to 206 °C.
Then `O=[N+]([O-])c1cccc(N2N=C(O)c3ccccc3C2CCO)c1` (stereo not drawn), with 164 to 165 °C; and `CCCCCCCCC(SCCCCCC)C(=O)Nc1c(Cl)cc(NC(C)=O)c2ncc(C)cc12` (stereo not drawn), with 140 to 141 °C; and `c1cc(C2CCC(c3ccc(OCC4CO4)cc3)CC2)ccc1OCC1CO1` (stereo not drawn), with 154 °C.
Under `CCCCc1nc(Cl)c(C=O)n1Cc1ccc([N+](=O)[O-])cc1` stands 88 to 89 °C; under `O=C(Nc1cc(Cl)cc(Cl)c1)C(Cl)Cl`, 133 to 135 °C.
Compound `Cc1nn(-c2ccc(C(F)(F)F)cn2)cc1CCCOc1cc(CCC(=O)O)n(-c2ccccc2)n1` had a melting point of 125 to 126 °C.
`CCOC(=O)c1cn2c3c(cc(CN4CCOCC4)cc3c1=O)OCC2`: the melting point was in the range of 216 to 218 °C.
Under `Cc1nc2c(O)cccn2c(=O)c1CCO` stands 150 °C; under `CCOC(=O)c1cnc2c(NC(=O)c3c(Cl)cccc3Cl)cccc2c1CC(=O)O`, 149 to 159 °C.
In turn, `CCOC(=O)c1c(Cn2cnnc2)nc2cc(OC)c(OC)cc2c1-c1ccc(OC(C)C)c(OC)c1` displayed a melting point of 178 to 179 °C.
Then `CN1CCC23CC(=O)CCC2(O)C1Cc1ccccc13` (stereo not drawn), with 143 to 144 °C; and `Cc1cc(=O)[nH]c(NC(=N)Nc2ccccc2C)n1`, with 260 °C; and `CNC1=NC2(O)c3ccc(OCC(F)(F)C(F)(F)C(F)(F)F)cc3CC2S1` (stereo not drawn), with 178 to 180 °C.
Take `O=C(NO)c1ccc(CNC(=O)c2[nH]c(-c3ccc(F)cc3)cc2-c2ccc(F)cc2)cc1`: the melting point lay in the range of 219 to 220 °C.
Turning to `O=C(O)c1ccc(OCCCc2ccccc2)cc1`, the melting point lay within 165 to 166 °C.
In the case of `CCN(CC)CCNC(=O)c1c[nH]c2ccc(I)cc2c1=O`, the melting point was 234 to 236 °C.
Under `Cn1c(-c2cccs2)nnc1S(C)=O` (stereo not drawn) stands 105 to 107 °C.
